Values after ≈ are worked out from the molar mass of the structure shown. Read-outs that look alike come from different tables or passages of the source.
Tests used:
[1] = tested on: Staphylococcus aureus MU500; format: cell-based; details: remaining bacteria of experiment 12 proliferated and treated again
Procedure: (§1) 15′000′000 multi-resistant bacteriae (0.050 ml of a McFarland of 1) were put on 40 mm diameter petri dishes. The petri dishes comprised MH agar with or without antibiotic.
(§2) The LED power during 0.02 ms was measured to be 0.63 W on a Thorlabs power sensor with a surface area of 2.2×2.2 mm representing a power of 13 mW/cm^2.
(§3) After the irradiation treatment according to experiment 12, remaining bacteria were allowed to proliferate and then were subject to the treatment according to experiment 12 again in order to test for possible new resistances to the treatment. The values in the following table are designated as in experiment 12: […]

Acinetobacter [2] = format: cell-based; details: remaining bacteria of experiment 12 proliferated and treated again
Procedure: as §1, §2, §3

Acinetobacter [3] = test: Experiment 12: replication on antibiotic agar after pulsed 400 nm irradiation; format: cell-based; details: 24 hours incubation; for C: Acinetobacter (no irradiation), replication: antibiotic 10 mg/l in MH agar; for D Acinetobacter (irradiation), replication: antibiotic 10 mg/l, 400 nm LED pulses 0.02 ms, 1 kHz, 10 minutes
Procedure: as §1
(§4) […]. The LED power during 0.02 ms was measured to be 0.63 W on a Thorlabs power sensor with a surface area of 2.2×2.2 mm representing a power of 13 mW/cm^2.

Pseudomonas aeruginosa = test: as above; format: cell-based; details: 24 hours incubation; for A: Pseudomonas aeruginosa (no irradiation), replication: antibiotic 10 mg/l in MH agar; for B: Pseudomonas aeruginosa (irradiation), replication: antibiotic 10 mg/l, 400 nm LED pulses 0.02 ms, 1 kHz, 10 minutes
Procedure: as §1, §4

[4] = tested on: MU50 multi-drug resistant bacterial cells; test: Experiment 2: moxifloxacin with UV-A on MU50 (CFU); format: cell-based, Staphylococcus aureus; details: for control: CFU without UVA: no UVA
Excerpt: This low concentration was chosen so as to detect threshold effects at the low edge of a just marginally effective concentration level of the antibiotic.

fibroblasts = format: cell-based
Procedure: In the second toxicity test fibroblasts were grown in RPMI cell culture medium medium with 10% fetal bovine serum and 1% of penicillin-streptomycin-fungizione (100×).
A: pulsed for 10 ms on and 90 ms of for 10 minutes or
B: pulsed for 5 ms on and 45 ms of for 10 minutes
C: no exposure to electromagnetic radiation
The result was obtained by counting viable cells for determination of the percentage of viable cells, with 100% viability being equal to the number of cells delivered to each well.

[5] = tested on: Staphylococcus aureus MU500; test: Experiment 12: replication on antibiotic agar after pulsed 400 nm irradiation; format: cell-based; details: 24 hours incubation; for E: Staphylococcus aureus MU500 (no irradiation), replication: antibiotic 10 mg/l in MH agar; for F: Staphylococcus aureus MU500 (irradiation), replication: antibiotic 10 mg/l, 400 nm LED pulses 0.02 ms, 1 kHz, 10 minutes
Procedure: as §1, §2

[6] = tested on: MU50 multidrug-resistant Staphylococcus aureus strain (MRSA); test: Minimum inhibitory concentration (MIC) on MU50; format: cell-based; details: Staphylococcus aureus, MRSA; overnight incubation; read-out: MIC
Excerpt: For some of the experimental tests MU50 bacteria were used. MU50 is a multidrug-resistant Staphylococcus aureus strain (MRSA). MRSA are bacteria which have naturally evolved under antibiotic selection pressure and which are known to be resistant to antibiotics including penicillins (methicillin, dicloxacillin, nafcillin, oxacillin, etc.) and cephalosporins. MU50 is additionally resistant to macrolides, quinolones and aminoglycosides.
The minimum inhibitory concentration (MIC), which inhibits the visible growth of a microorganism after an overnight incubation was determined for the following antibiotics: […]

Mice fibroblast = format: cell-based; details: Tobramycin 75, Tetracycline 10, Ciprofloxacin 1 μg/ml; 30 min pre-incubation; no treatment, CXL 18 mW/cm2 5 min or laser 405 nm 1 min; 24 hours
Procedure: The number of colony forming units (CFU) was determined after 24 hours of incubation at 37° C.

[7] = tested on: chemotherapy resistant stage 4 (metastatic) small cells lung carcinoma cells; test: Experiment 10: metabolic activity (CellTiter-Glo) of resistant neoplastic cells after photo-activated oncological drugs; details: sample 4, Topotecan 0.07 μg/ml
[8] = sample 1A: moxifloxacin during UV 5 μg/ml, after UV 7.5 μg/ml for 2 hours, UV-A 365 nm 10 mW/cm^2 10 min
[9] = sample 1B: moxifloxacin during UV 5 μg/ml, after UV 2.5 μg/ml (NaCl added), UV-A 365 nm 10 mW/cm^2 10 min

| SMILES | F: Staphylococcus aureus MU500 (irradiation), replication, second treatment [1] | E: Staphylococcus aureus MU500 (no irradiation), replication, second treatment [1] | D Acinetobacter (irradiation), replication, second treatment (Acinetobacter [2]) | C: Acinetobacter (no irradiation), replication, second treatment (Acinetobacter [2]) | C: Acinetobacter (no irradiation), replication (Acinetobacter [3]) | D Acinetobacter (irradiation), replication (Acinetobacter [3]) | A: Pseudomonas aeruginosa (no irradiation), replication (Pseudomonas aeruginosa) | B: Pseudomonas aeruginosa (irradiation), replication (Pseudomonas aeruginosa) | E: Staphylococcus aureus MU500 (no irradiation), replication [5] | F: Staphylococcus aureus MU500 (irradiation), replication [5] | also measured |
| --- | --- | --- | --- | --- | --- | --- | --- | --- | --- | --- | --- |
| COc1c(N2C[C@@H]3CCCN[C@@H]3C2)c(F)cc2c(=O)c(C(=O)O)cn(C3CC3)c12 [Moxifloxacin] | PR (Bacteria can replicate partially) | R (Bacteria can replicate after the treatment) | NR (No replication) | R (Bacteria can replicate after the treatment) | R (Bacteria can replicate after the treatment) | NR (No replication) | R (Bacteria can replicate after the treatment) | NR (No replication) | R (Bacteria can replicate after the treatment) | NR (No replication) | control: CFU without UVA ([4]; sample 1A: moxifloxacin during 5 μg/ml, after 7.5 μg/ml for 2 hours): 516 CFU; CFU with UVA [4, 8]: 3 CFU; CFU with UVA, percentage in brackets (survival rate) [4, 8]: 0%; control: CFU without UVA ([4]; sample 1B: moxifloxacin during 5 μg/ml, after 2.5 μg/ml (NaCl added)): 400 CFU; CFU with UVA [4, 9]: 119 CFU; CFU with UVA, percentage in brackets [4, 9]: 30%; Percentage of viable cells (fibroblasts; C: no exposure to electromagnetic radiation, antibiotic 3-10 μg/ml final): 85% |
| CN(C)[C@@H]1C(O)=C(C(N)=O)C(=O)[C@@]2(O)C(O)=C3C(=O)c4c(O)cccc4[C@@](C)(O)C3CC12 (stereo partly shown) [Tetracycline] | NR (No replication) | R (Bacteria can replicate after the treatment) | NR (No replication) | R (Bacteria can replicate after the treatment) | R (Bacteria can replicate after the treatment) | NR (No replication) | R (Bacteria can replicate after the treatment) | NR (No replication) | R (Bacteria can replicate after the treatment) | NR (No replication) | MIC [6]: 32 µg/mL (≈ 72 µM); toxicity in term of necrosis and apoptosis (Mice fibroblast): No toxicity in term of necrosis and apoptosis; Percentage of viable cells Normalized for the dead cell in NaCl group including light (fibroblasts; A: 405 nm pulsed 10 ms on, 90 ms off for 10 minutes): 52%; Percentage of viable cells Normalized for the dead cell in NaCl group including light (fibroblasts; B: 405 nm pulsed 5 ms on, 45 ms off for 10 minutes): 57% |
| CC[C@@]1(O)C(=O)OCc2c1cc1n(c2=O)Cc2cc3c(CN(C)C)c(O)ccc3nc2-1 [Topotecan] | – | – | – | – | – | – | – | – | – | – | cell metabolic activity (luminescence, ATP) after normalization with the controls ([7]; A: pulse ON 10 ms, 0.1 J, OFF 90 ms, 10 minutes): 7%; cell metabolic activity (luminescence, ATP) after normalization with the controls ([7]; B: pulse ON 10 ms, 0.01-0.001 J, OFF 90 ms, 10 minutes): 52%; cell metabolic activity (luminescence, ATP) after normalization with the controls ([7]; C: control no pulse): 100%; cell metabolic activity (luminescence, ATP) after normalization with the controls ([7]; D: control no pulse): 100%; cell metabolic activity (luminescence, ATP) after normalization with the controls ([7]; E: pulse ON 10 ms, 0.01-0.001 J, OFF 90 ms, 5 minutes): 47%; cell metabolic activity (luminescence, ATP) after normalization with the controls ([7]; F: pulse ON 10 ms, 0.1 J, OFF 90 ms, 5 minutes): 5% |

Reference: patent publication US20160120979A1, “METHOD OF APPLYING A COMPOSITION AND PHARMACEUTICAL COMPOSITION WITH A REGIMEN OF ADMINISTERING IT” (priority 2013, published 2016)
